Patent publication US4513007A, “Method for treating heart disease” (priority 1983, dated 1985)

Legend:
[1] = acute toxicity study; details: in vivo, mice and rats
[2] = system: infarct size, left ventricle; assay type: in vivo, mongrel dogs
Protocol: IV. In a fourth study the influence of calcium dobesilate on infarct size was evaluated by the double-blind technique. The study was performed in 14 mongrel dogs of either gender weighing about 23-25 kg.
Anesthesia was induced and maintained with sodium pentobarbital (30 mg/kg) and ventilation was maintained through an endotracheal tube with a Harvard respirator providing 200-300 cc of room air/breath at a rate of 18-20/minute.
Coronary artery occlusion in all dogs was obtained by ligation of the LAD just distal to the first septal branch.
The left circumflex artery (LCC) was not ligated and its territory being non-infarcted was used as a control. After ligation of the LAD artery the chest was closed. Calcium dobesilate or the placebo were administered by intravenous perfusion during 7 days according to the following schedule:
0-1 hour after LAD ligation 100 mg/kg i.v. in 100 ml saline
2-3 hours after LAD ligation 100 mg/kg i.v. in 100 ml saline
4-6 hours after LAD ligation 75 mg/kg i.v. in 100 ml saline
7-12 hours after LAD ligation 50 mg/kg i.v. in 100 ml saline
13-24 hours after LAD ligation 50 mg/kg i.v. in 100 ml saline
2-5 days after LAD ligation 3 × 50 mg/kg i.v. in 50 ml saline
6-7 days after LAD ligation 3 × 25 mg/kg i.v. in 50 ml
After 7 days the animals were killed and the hearts were sliced in sections of 1 cm (from the apex to the base). The infarcted and non-infarcted zones of the left ventricle were planimetered to evaluate the infarct size in % in relation to the whole left ventricle. Then the infarcted and non infarcted zones were weighed to determine the size of the infarcted zone in grams in relation to the size of the whole left ventricle.

[3] = system: dogs with experimental myocardial infarction; experiment: electrocardiographic tracings in dogs after coronary artery ligation (second study); assay type: in vivo, mongrel dogs; details: group III treated dogs, 360 min, 100 mg/kg i.v.
Protocol: In 7 dogs the coronary artery was occluded and lymphangiography was performed post-mortem 30 minutes after the occlusion (group II). In 6 other dogs the coronary artery was occluded and lymphangiography was performed 360 minutes after coronary artery occlusion (group III). An additional 12 dogs were treated with CLS 2210 (calcium dobesilate) in a single dose of 100 mg/kg by intravenous infusion immediately after coronary artery occlusion. In 6 of these dogs, post-mortem lymphangiography was performed 30 minutes following coronary artery occlusion (group II), and in the other 6 it was performed 360 minutes after occlusion (group III).

[4] = system: cardiac lymphatics; experiment: cardiac lymphangiography in normal dogs and dogs with LAD coronary artery ligation (second study); assay type: in vivo, mongrel dogs; details: 100 mg/kg i.v.
Protocol: II. The second study was performed to evaluate the influence of calcium dobesilate on the visualization of the lymphatic vessels in the infarcted and non-infarcted zones after ligation of the left anterior descending (LAD) coronary artery in 37 mongrel dogs. In 6 dogs the coronary artery was not occluded (group I). […] Therefore a larger control series was not required. In 6 normal dogs CLS 2210 (calcium dobesilate) was administered in a single dose of 100 mg/kg by intravenous infusion in 100 ml of physiological saline or glucose. Six hours after administration of CLS 2210 (calcium dobesilate) the dogs were killed and cardiac lymphangiography was performed post-mortem (group I) as described above (8). In 7 dogs the coronary artery was occluded and lymphangiography was performed post-mortem 30 minutes after the occlusion (group II). In 6 other dogs the coronary artery was occluded and lymphangiography was performed 360 minutes after coronary artery occlusion (group III). An additional 12 dogs were treated with CLS 2210 (calcium dobesilate) in a single dose of 100 mg/kg by intravenous infusion immediately after coronary artery occlusion. In 6 of these dogs, post-mortem lymphangiography was performed 30 minutes following coronary artery occlusion (group II), and in the other 6 it was performed 360 minutes after occlusion (group III). The infarcted zone of myocardium was identified in vivo by direct inspection after coronary artery occlusion according to the usual indices, including color change and disordered contraction. […] Both the infarcted (LAD) and non-infarcted zones (the non-[…] zone was the region of the left circumflex coronary artery or LCC) were evaluated, the non-infarcted zone serving for comparison. Mean values were presented with the standard error of the mean as the index of dispersion. Statistical analysis was done, where appropriate, with the student t-test or by non-parametric methods in the form of the Wilcoxon ranks sum test or Fisher's s exact test. The null hyothesis was rejected when p was less than 0,05.

[5] = system: cardiac lymphatics; experiment: post-mortem cardiac lymphangiography in normal dog hearts (first study); assay type: in vivo, mongrel dogs; details: normal myocardium; for No of lymphatics per cm^2 / Equivalence to ventricular surface: 6 h after i.v., Hyaluronidase 500 I.U./kg, calcium dobesilate 50-100 mg/kg; for No of lymphatics per cm^2: controls 1.64 ± 0.11, P <0.001 in relation to control; for Equivalence to ventricular surface: controls 6.6%, P <0.001
Protocol: I. In a first study the effect of calcium dobesilate was compared to Hyaluronidase on the visualization of cardiac lymphatics in normal dog hearts (not infarcted). 18 healthy mongrel dogs of either gender were divided into 3 groups each of 6 animals. […] The dogs in the second group received an intravenous injection of Hyaluronidase (500 I.U./kg) and those of the third group received an i.v. injection of calcium dobesilate (50-100 mg/kg). Post-mortem cardiac lymphangiography was performed after killing the animals and extracting the hearts 6 hours after the administration of either product. The results of the 2 groups were compared to that of the controls. The technique of cardiac lymphangiography used was that described by Szlavy L., Adams D., Hollenberg N. K. and Abrams H., published in the American Heart Journal, Vol. 100, Nr. 3, pp 323-331, Sept. 1980 (8). The technique consisted in injecting a contrast agent (30 g barium sulphate+2-5 ml of Iodamid 420) into the superficial lymphatic vessels of the heart using a Becton-Dickinson lymphangiography set. The contrast agent was injected under gentle manual pressure until the lymphatic vessels in the left ventricle were filled (multiple injections starting from the apex to the base of the heart). The heart was then X-rayed with 5-fold magnification using a 0,1 mm focal spot X-raytube and with exposure factors of 50 KV, 0,01 second and 30 mA. With this technique it was possible to visualize the 40-80 microns lymphatic vessels. A grid was applied on the lymphangiograms which consisted of lines drawn at right angles, 1 cm apart. Each 5×5 cm^2 served as a single unit as it corresponded to 1 cm^2 of the left ventricular myocardium (5-fold magnification was used for filming). A point was counted whenever a crossing coincided with a visualized lymph vessel in the lymphangiogram. In this way a quantitative index was obtained based on the number of lymph vessels/cm^2 or to the percent of the left ventricular surface area.

[6] = system: cardiac lymphatics; experiment: cardiac lymphangiography in normal dogs and dogs with LAD coronary artery ligation (second study); assay type: in vivo, mongrel dogs; details: intravenous infusion, dogs
[7] = system: cardiac arrhythmia in dogs; experiment: cardiac arrhythmia in dogs induced by electrical stimulation (third study); assay type: in vivo, mongrel dogs; details: 4 hours of stimulation (>180 beats/minute); 50-75 mg/kg i.v. bolus; untreated: tachyarrhythmia bursts, extrasystoles
Protocol: III. In a third study it was evaluated the effect of calcium dobesilate on cardiac arrhythmia in dogs induced by electrical stimulation, to produce EKG changes and cardiac lymphostasis similar to those observed in sick sinus syndrome in man (4,5). […] The other three dogs served as controls. EKG records were made 4 hours later in all animal.

[8] = system: microvessels; details: cited from earlier work
[9] = system: rabbit ear; details: Roskam's method; U.S. Pat. No. 3,509,207; cited from earlier work
[10] = system: patients with fresh myocardial infarction; assay type: in vivo, human (patients)
Protocol: V. A preliminary clinical study was conducted on 100 patients with fresh myocardial infarction who had to fulfill the following criteria for admission: typical history of chest pain, with onset of less than six hours duration and having anterior or anteroseptal transmural myocardial infarction evidenced by 12 leads EKG criteria. 50 patients received the usual conventional drugs advocated in the hospital where the study was undertaken (potent analgesic, nitroglycerin, diuretics, lidocain, digitalis) and served as a comparison or control group. The other 50 patients received the conventional drugs and in addition calcium dobesilate which was given as follows: 100 mg/kg of calcium dobesilate by i.v. perfusion in 300 ml glucose, on admission 50-100 mg/kg of calcium dobesilate by i.v. perfusion in 300 ml glucose every hour during the subsequent 3 hours 25 mg/kg of calcium dobesilate by i.v. perfusion in 300 ml glucose every 6 hours until the 3rd-4th day after admission The treatment was then continued, by giving 500-1,000 mg of calcium dobesilate orally thrice daily.

[11] = system: dogs with coronary occlusion; details: cited from earlier work
[12] = system: patients with acute anterior myocardial infarction; details: intravenous; cited from earlier work
[13] = compared to controls (FIGS. 1-3)

For `O=S(=O)(O)c1cc(O)ccc1O` [calcium dobesilate, calcium 2,5-dihydroxybenzenesulfonate], the LD50 ([1]; intravenous) was 750 mg/kg, the LD50 ([1]; oral) was over 4000 mg/kg and the “drug's tolerance during the experimental period” value ([2]; dog, in vivo) was “perfect”. The “side-effects attributable to the drug” value ([2]; dog, in vivo, iv) was “No side-effects”, the “infarct size % of whole area of left ventricle, planimetry, MEAN” value ([2]; mean of 8 dogs, i.v. perfusion 7 days, placebo mean 54,1%) was 26,2% and the “infarct size % of left ventricle, weight, MEAN” value ([2]; mean of 8 dogs, i.v. perfusion 7 days, placebo mean 54,4%) was 27,9%. For the same compound, the “reduction in infarct size compared to placebo” value ([2]; planimetry and weight analysis, p<0,001) was 50 % less, the ST-segment elevation [3] was “a fall in the ST-segment elevation” and the “mean points count/cm^2, LCC zone (non infarcted)” value ([4]; group I, normal dogs without MI, 360 min, untreated 1,84 ± 0,18, p <0,001) was 5,22 ± 0,34 points/cm^2. The “ventricular surface occupied by lymphatics” value (from here on “ventricular surface occupied”) ([4]; group I, normal dogs without MI, 360 min, untreated 7,2%, listed as CLS 2210, 100 mg/kg) was 20.9%, the “ventricular surface occupied” value ([4]; group I, normal dogs without MI, 360 min, untreated 7,2%, listed as CLS (ca. dobesilate), 100 mg/kg) was 20,9% and the “mean points count/cm^2, LAD zone” value ([4]; group I, normal dogs without myocardial infarction, 360 min, untreated 1,81 ± 0,18, p <0,001) was 5,20 ± 0,34 points/cm^2. The “point counts, normal myocardium” value ([4]; group I, normal dogs, 6 h, p<0,001 vs untreated normal myocardium) was 5,22±0,34 points/cm^2, the “ventricular surface occupied” value ([4]; group II, dogs with MI, 30 min, untreated 3,1%) was 9,8% and the “mean points count/cm^2, LAD zone (infarcted)” value ([4]; group II, dogs with MI, 30 min after occlusion, untreated 0,78 ± 0,07, p <0,01, listed as CLS 2210, 100 mg/kg) was 2,43±0,06 points/cm^2. The “mean points count/cm^2, LAD zone (infarcted)” value ([4]; group II, dogs with MI, 30 min after occlusion, untreated 0,78 ± 0,07, p <0,01, listed as CLS (ca. dobesilate), 100 mg/kg) was 2,43 ± 0,06 points/cm^2, the “mean points count/cm^2, LCC zone (non infarcted)” value ([4]; group II, dogs with MI, 30 min after occlusion, untreated 1,47 ± 0,07, listed as CLS 2210, 100 mg/kg) was 2,75±0,22 points/cm^2 and the “mean points count/cm^2, LCC zone (non infarcted)” value ([4]; group II, dogs with MI, 30 min after occlusion, untreated 1,47 ± 0,07, listed as CLS (ca. dobesilate), 100 mg/kg) was 2,75 ± 0,22 points/cm^2. The “ventricular surface occupied” value ([4]; group III, dogs with MI, 360 min, untreated 3,2%) was 24,8%, the “mean points count/cm^2, LAD zone (infarcted)” value ([4]; group III, dogs with MI, 360 min after occlusion, untreated 0,80 ± 0,08, p <0,001, listed as CLS 2210) was 6,15±0,18 points/cm^2 and the “mean points count/cm^2, LAD zone (infarcted)” value ([4]; group III, dogs with MI, 360 min after occlusion, untreated 0,80 ± 0,08, p <0,001, listed as CLS (ca. dobesilate)) was 6,15 ± 0,18 points/cm^2. For the same compound, the “mean points count/cm^2, LCC zone (non infarcted)” value ([4]; group III, dogs with MI, 360 min after occlusion, untreated 2,57 ± 0,05, listed as CLS 2210, 100 mg/kg) was 2,45±0,13 points/cm^2, the “mean points count/cm^2, LCC zone (non infarcted)” value ([4]; group III, dogs with MI, 360 min after occlusion, untreated 2,57 ± 0,05, listed as CLS (ca. dobesilate), 100 mg/kg) was 2,45 ± 0,13 points/cm^2 and the “number of visualized lymphatics/cm^2 and equivalent left ventricular surface, comparison with Hyaluronidase and control groups” value [5] was “much higher”. The “No of lymphatics per cm^2” value [5] was 5.22 ± 0.34 per cm^2, the “Equivalence to ventricular surface” value [5] was 20.9% and the “most effective infused dose” value [6] was 100 mg per kg body weight. For the same compound, the “EKG tracings after rapid electrical stimulation” value [7] was “practically normal EKG tracings”, the anti-oedema effect [8] was “anti-oedema” and the “capillary fragility and permeability” value [8] was “reducing”. For the same compound, the viscosity lowering effect [8] was “viscosity lowering effect”, the “mean bleeding time of the rabbit ear” value [9] was “reduce” and the “precordial ST-segment elevation” value ([10]; EKG tracings, compared to controls) was “rapid and much greater decrease”. The “consumption of conventional drugs (analgesic, nitroglycerin, diuretic, lidocain and digitalis)” value ([10]; compared to control group, i.v. then oral, added to conventional drugs) was “considerably reduced”, the chest pain ([10]; compared to controls) was “much less” and the “serum levels of CPK” value [10, 13] was “significant reduction”. For the same compound, the “serum levels of LDH” value [10, 13] was “significant reduction”, the “serum levels of SGOT” value [10, 13] was “significant reduction” and the short-term mortality ([10]; controls 15%) was 2%. The “mobilisation of patients (average)” value ([10]; controls average 7 days) was 4 days, the side-effects ([10]; human, in vivo) was “no side-effects” and the tolerability ([10]; human, in vivo) was “well tolerated”.
In the case of Hyaluronidase, the ST segment elevation [11] is listed as “reduction”, the “infarct size (histological planimetric measurements)” value [11] is listed as “decrease” and the “myocardial CK (creatinine-Kinase)” value [11] is listed as “diminution”. For the same compound, the “number of lymphatic vessels in the area of infarction” value [11] was “increase”, the “No of lymphatics per cm^2” value [5] was 3.45 ± 0.18 per cm^2 and the “Equivalence to ventricular surface” value [5] was 13.8%. For the same compound, the “EKG signs of necrosis” value [12] was “attenuate”.
